Laboratory results: US20260000601A1, “Anti-Carbonylation Composition And Method Of Protecting Keratin Materials From Carbonylation Stimuli By Using Compositions Including Polylysines” (ELC Management LLC, priority 2022, published 2026)

Tested on: Bovine Serum Albumin (BSA)
Experiment: In vitro anti-carbonylation efficacy test (acrolein-induced carbonylation of BSA, Protein Carbonyl Assay Kit)
Details: BSA + acrolein in PBS, 37° C. overnight; for % inhibition of carbonylation (average): blank = 0%; for Percentage of protein carbonylation level (average): blank = 100%
[1] = agent working concentration 0.005%
[2] = agent working concentration 0.05%

Protocol: This assay provides an in vitro method to determine how an anti-carbonylation agent/composition affects the extent of protein carbonylation. With deionized water, the anti-carbonylation agent/composition to be tested was made into a 1% solution, Bovine Serum Albumin (BSA) was made into a 10 mg/mL solution, and Acrolein was made into a 10 mM solution. Then, in a 1.5 mL centrifuge tube, according to the content in Table 1, BSA (10 mg/mL), anti-carbonylation agent/composition (1%), Acrolein (10 mM) and Phosphate buffer solution (PBS) were added to the centrifuge tube. The sample containing only BSA and PBS served as a baseline, and the sample containing BSA, Acrolein and PBS served as a blank. The final liquid volume in each centrifuge tube was 1.0 mL. Each group contained three replicate samples, and all samples were placed at 37° C. overnight.
The protein carbonyl content in the above samples was detected by using the Protein Carbonyl Assay Kit of Nanjing Jiancheng Bioengineering Institute. The detection methods are as follows: take 0.1 mL of sample into the assay tube, then add 0.4 mL of reagent 3 in the kit, vortex to mix for 1 min, and react at 37° C. for 30 min in the dark. Add 0.5 mL of reagent 5 in the kit, vortex and mix for 1 min, centrifuge at 12,000 r/min for 10 min at 4° C., discard the supernatant, and leave the pellet. Add 1.0 mL of anhydrous ethanol and ethyl acetate (1:1) mixed solution, vortex to mix for 1 min, centrifuge at 12,000 r/min for 10 min at 4° C., discard the supernatant, leave the precipitate, and repeat the above steps four times. Add 1.25 mL of reagent VI in the kit, mix well, place it in 37° C. for 15 min, vortex to mix, dissolve all the precipitates, and centrifuge at 12,000 r/min for 15 minutes. Take the supernatant in a quartz cuvette with a light diameter of 0.5 cm, adjust the zero with reagent six, and measure the absorbance value of each tube at 370 nm (ultraviolet). According to the formula, we can get the protein carbonyl content.
The protein content of the samples was determined using Thermos's Micro BCA™ Protein Assay Kit. First, prepare Diluted Albumin (BSA) Standards (Working Range=20-750 μg/mL). Mix BCA Reagent A with Reagent B (Reagent A:Reagent B=50:1) to prepare working solution. Take 25 μL each of the protein standard at different dilution concentration and the protein sample, add them to the microplate. Add 200 μL of working solution to each well and mix well by shaking on a shaker for 30 s. The microplate was sealed and incubated at 37° C. for 30 min. Cool the microplate to room temperature and measure the absorbance of the sample at a wavelength of 562 nm. The corrected absorbance value is the absorbance value of the blank sample subtracted from the readings of each standard and sample. The protein concentration was read against a standard curve prepared with known amounts of BSA. Referring to the standard curve, according to the corrected absorbance value of each protein sample, read the protein concentration of each sample within the linear range of the standard curve. Calculate the amount of protein in the original sample based on the sample volume and dilution.
The anti-carbonylation capability of each anti-carbonylation agents/composition can be obtained by dividing the carbonylation degree of the sample by the BSA protein content.

Molecule	% inhibition of carbonylation (average) [1]	Percentage of protein carbonylation level (average) [1]	% inhibition of carbonylation (average) [2]	Percentage of protein carbonylation level (average) [2]
NCCCC[C@H](N)C(=O)O [L-Lysine]	21%	79%	40%	60%
Dendritic PL: dendritic polylysine, DendriClear from Lucas Meyer, Mw = 6171		43%		19%
